Source: ChEMBL document CHEMBL3045544, “Synthesis, antimicrobial and antioxidant activities of some new indole derivatives containing pyridopyrimidine and pyrazolopyridine moieties” (Med Chem Res, 2013)

What was measured:
Assay type in all cases: functional
Aspergillus flavus = assay: Antimicrobial activity against Aspergillus flavus MTCC 1973 assessed as diameter of growth inhibition zone at 500 ug/ml after 72 hr by cup-plate method; details: MTCC 1973, 72 h, read-out: DIZ
Aspergillus terreus = assay: Antimicrobial activity against Aspergillus terreus MTCC 1782 assessed as diameter of growth inhibition zone at 500 ug/ml after 72 hr by cup-plate method; details: MTCC 1782, 72 h, read-out: DIZ
Aspergillus niger = assay: Antimicrobial activity against Aspergillus niger MTCC 281 assessed as diameter of growth inhibition zone at 500 ug/ml after 72 hr by cup-plate method; details: MTCC 281, 72 h, read-out: DIZ
Aspergillus oryzae = assay: Antimicrobial activity against Aspergillus oryzae MTCC 3567 assessed as diameter of growth inhibition zone at 500 ug/ml after 72 hr by cup-plate method; details: MTCC 3567, 72 h, read-out: DIZ
Pseudomonas aeruginosa = assay: Antimicrobial activity against Pseudomonas aeruginosa MTCC 1688 assessed as diameter of growth inhibition zone at 500 ug/ml after 24 hr by cup-plate method; details: MTCC 1688, 24 h, read-out: DIZ
Klebsiella pneumoniae = assay: Antimicrobial activity against Klebsiella pneumoniae NCTC 13368 assessed as diameter of growth inhibition zone at 500 ug/ml after 24 hr by cup-plate method; details: NCTC 13368, 24 h, read-out: DIZ
Staphylococcus aureus = assay: Antimicrobial activity against Staphylococcus aureus ATCC 29513 assessed as diameter of growth inhibition zone at 500 ug/ml after 24 hr by cup-plate method; details: ATCC 29513, 24 h, read-out: DIZ
Escherichia coli = assay: Antimicrobial activity against Escherichia coli MTCC 723 assessed as diameter of growth inhibition zone at 500 ug/ml after 24 hr by cup-plate method; details: MTCC 723, 24 h, read-out: DIZ

Cc1ccc2[nH]c(-c3ccccc3)c(-c3cc(-c4ccccc4)nc4ncnc(N)c34)c2c1
zone of inhibition at 500 µg/mL (Aspergillus flavus): 11 mm | zone of inhibition at 500 µg/mL (Aspergillus terreus): 10 mm | zone of inhibition at 500 µg/mL (Aspergillus niger): 8 mm | zone of inhibition at 500 µg/mL (Aspergillus oryzae): 6 mm | zone of inhibition at 500 µg/mL (Pseudomonas aeruginosa): 5 mm | zone of inhibition at 500 µg/mL (Klebsiella pneumoniae): 6 mm | zone of inhibition at 500 µg/mL (Staphylococcus aureus): 10 mm | zone of inhibition at 500 µg/mL (Escherichia coli): 8 mm

Cc1ccc2[nH]c(-c3ccccc3)c(-c3cc(-c4ccc(Cl)cc4)nc4[nH]nc(N)c34)c2c1
zone of inhibition at 500 µg/mL (Aspergillus flavus): 11 mm | zone of inhibition at 500 µg/mL (Aspergillus terreus): 2 mm | zone of inhibition at 500 µg/mL (Aspergillus niger): 10 mm | zone of inhibition at 500 µg/mL (Aspergillus oryzae): 8 mm | zone of inhibition at 500 µg/mL (Pseudomonas aeruginosa): 8 mm | zone of inhibition at 500 µg/mL (Klebsiella pneumoniae): 10 mm | zone of inhibition at 500 µg/mL (Staphylococcus aureus): 10 mm | zone of inhibition at 500 µg/mL (Escherichia coli): 7 mm

Cc1ccc2[nH]c(-c3ccccc3)c(-c3cc(-c4ccccc4)nc4nc[nH]c(=O)c34)c2c1
zone of inhibition at 500 µg/mL (Aspergillus flavus): 10 mm | zone of inhibition at 500 µg/mL (Aspergillus terreus): 10 mm | zone of inhibition at 500 µg/mL (Aspergillus niger): 9 mm | zone of inhibition at 500 µg/mL (Aspergillus oryzae): 8 mm | zone of inhibition at 500 µg/mL (Pseudomonas aeruginosa): 10 mm | zone of inhibition at 500 µg/mL (Klebsiella pneumoniae): 9 mm | zone of inhibition at 500 µg/mL (Staphylococcus aureus): 6 mm | zone of inhibition at 500 µg/mL (Escherichia coli): 5 mm

Nc1n[nH]c2nc(-c3ccccc3)cc(-c3c(-c4ccccc4)[nH]c4ccc(Cl)cc34)c12
zone of inhibition at 500 µg/mL (Aspergillus flavus): 10 mm | zone of inhibition at 500 µg/mL (Aspergillus terreus): 14 mm | zone of inhibition at 500 µg/mL (Aspergillus niger): 5 mm | zone of inhibition at 500 µg/mL (Aspergillus oryzae): 10 mm | zone of inhibition at 500 µg/mL (Pseudomonas aeruginosa): 5 mm | zone of inhibition at 500 µg/mL (Klebsiella pneumoniae): 13 mm | zone of inhibition at 500 µg/mL (Staphylococcus aureus): 12 mm | zone of inhibition at 500 µg/mL (Escherichia coli): 8 mm

Cc1ccc(-c2cc(-c3c(-c4ccccc4)[nH]c4ccc(C)cc34)c3c(N)ncnc3n2)cc1
zone of inhibition at 500 µg/mL (Aspergillus flavus): 5 mm | zone of inhibition at 500 µg/mL (Aspergillus terreus): 5 mm | zone of inhibition at 500 µg/mL (Aspergillus niger): 10 mm | zone of inhibition at 500 µg/mL (Aspergillus oryzae): 8 mm | zone of inhibition at 500 µg/mL (Pseudomonas aeruginosa): 5 mm | zone of inhibition at 500 µg/mL (Klebsiella pneumoniae): 6 mm | zone of inhibition at 500 µg/mL (Staphylococcus aureus): 10 mm | zone of inhibition at 500 µg/mL (Escherichia coli): 5 mm

Cc1ccc(-c2cc(-c3c(-c4ccccc4)[nH]c4ccccc34)c3c(N)ncnc3n2)cc1
zone of inhibition at 500 µg/mL (Aspergillus flavus): 8 mm | zone of inhibition at 500 µg/mL (Aspergillus terreus): 8 mm | zone of inhibition at 500 µg/mL (Aspergillus niger): 10 mm | zone of inhibition at 500 µg/mL (Aspergillus oryzae): 10 mm | zone of inhibition at 500 µg/mL (Pseudomonas aeruginosa): 10 mm | zone of inhibition at 500 µg/mL (Klebsiella pneumoniae): 11 mm | zone of inhibition at 500 µg/mL (Staphylococcus aureus): 11 mm | zone of inhibition at 500 µg/mL (Escherichia coli): 10 mm

Cc1ccc(-c2cc(-c3c(-c4ccccc4)[nH]c4ccc(Cl)cc34)c3c(N)ncnc3n2)cc1
zone of inhibition at 500 µg/mL (Aspergillus flavus): 10 mm | zone of inhibition at 500 µg/mL (Aspergillus terreus): 4 mm | zone of inhibition at 500 µg/mL (Aspergillus niger): 8 mm | zone of inhibition at 500 µg/mL (Aspergillus oryzae): 5 mm | zone of inhibition at 500 µg/mL (Pseudomonas aeruginosa): 9 mm | zone of inhibition at 500 µg/mL (Klebsiella pneumoniae): 9 mm | zone of inhibition at 500 µg/mL (Staphylococcus aureus): 10 mm | zone of inhibition at 500 µg/mL (Escherichia coli): 9 mm

Nc1ncnc2nc(-c3ccc(Cl)cc3)cc(-c3c(-c4ccccc4)[nH]c4ccc(Cl)cc34)c12
zone of inhibition at 500 µg/mL (Aspergillus flavus): 12 mm | zone of inhibition at 500 µg/mL (Aspergillus terreus): 8 mm | zone of inhibition at 500 µg/mL (Aspergillus niger): 8 mm | zone of inhibition at 500 µg/mL (Aspergillus oryzae): 8 mm | zone of inhibition at 500 µg/mL (Pseudomonas aeruginosa): 11 mm | zone of inhibition at 500 µg/mL (Klebsiella pneumoniae): 10 mm | zone of inhibition at 500 µg/mL (Staphylococcus aureus): 12 mm | zone of inhibition at 500 µg/mL (Escherichia coli): 11 mm

Cc1ccc(-c2cc(-c3c(-c4ccccc4)[nH]c4ccc(C)cc34)c3c(N)n[nH]c3n2)cc1
zone of inhibition at 500 µg/mL (Aspergillus flavus): 11 mm | zone of inhibition at 500 µg/mL (Aspergillus terreus): 9 mm | zone of inhibition at 500 µg/mL (Aspergillus niger): 10 mm | zone of inhibition at 500 µg/mL (Aspergillus oryzae): 3 mm | zone of inhibition at 500 µg/mL (Pseudomonas aeruginosa): 6 mm | zone of inhibition at 500 µg/mL (Klebsiella pneumoniae): 5 mm | zone of inhibition at 500 µg/mL (Staphylococcus aureus): 11 mm | zone of inhibition at 500 µg/mL (Escherichia coli): 10 mm

CN[C@@H]1[C@H](O[C@H]2[C@H](O[C@H]3[C@H](O)[C@@H](O)[C@H](N=C(N)N)[C@@H](O)[C@@H]3N=C(N)N)O[C@@H](C)[C@]2(O)C=O)O[C@@H](CO)[C@H](O)[C@H]1O [STREPTOMYCIN]
zone of inhibition at 500 µg/mL (Pseudomonas aeruginosa): 13 mm | zone of inhibition at 500 µg/mL (Klebsiella pneumoniae): 13 mm | zone of inhibition at 500 µg/mL (Staphylococcus aureus): 13 mm | zone of inhibition at 500 µg/mL (Escherichia coli): 13 mm

OC(Cn1cncn1)(Cn1cncn1)c1ccc(F)cc1F [FLUCONAZOLE]
zone of inhibition at 500 µg/mL (Aspergillus flavus): 14 mm | zone of inhibition at 500 µg/mL (Aspergillus terreus): 14 mm | zone of inhibition at 500 µg/mL (Aspergillus niger): 14 mm | zone of inhibition at 500 µg/mL (Aspergillus oryzae): 14 mm
